According to paper PMC6003700 (European journal of medicinal chemistry, 2018):
Square brackets hold non-standard residues; d marks the D form. Peptide text beside a SMILES is read from it. dPhe(4-CF3) = N[C@H](Cc1ccc(C(F)(F)F)cc1)C(=O)O; Nle = CCCC[C@H](N)C(=O)O

What was measured:
MC3R Asp158Ala mutation = conditions: MC3R mutant versus wild type; cited from earlier work
[1] = tested on: hMC1R Asp117Ala and Asp121Ala mutants; conditions: hMC1R mutants versus wild type; cited from earlier work
[2] = tested on: hMC1R Asp117Ala and Asp121Ala mutants; conditions: hMC1R mutants versus wild type; cited from earlier work; remark: listed apart in the source
hMC1R = hMC1R (Homo sapiens, UniProt Q01726); test: cAMP accumulation, HEK293 cells expressing hMC1R; assay type: cell-based; conditions: hMC1R agonist EC50 versus other melanocortin receptors
hMC1R, sequence (Q01726 whole entry): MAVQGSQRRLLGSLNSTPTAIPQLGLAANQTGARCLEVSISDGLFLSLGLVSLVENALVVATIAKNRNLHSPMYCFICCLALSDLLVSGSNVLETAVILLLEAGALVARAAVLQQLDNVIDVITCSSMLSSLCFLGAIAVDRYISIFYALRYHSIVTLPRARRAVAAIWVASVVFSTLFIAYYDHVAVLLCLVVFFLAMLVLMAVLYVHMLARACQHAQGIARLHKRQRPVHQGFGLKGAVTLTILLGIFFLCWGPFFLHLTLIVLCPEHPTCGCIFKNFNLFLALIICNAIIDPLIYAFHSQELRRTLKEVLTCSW

hMC1R selectivity to other MCR subtypes (hMC1R) | Compound | increase for the EC50 value, Asp158Ala mutation (MC3R Asp158Ala mutation) | increase on the IC50 value for the Asp117Ala and Asp121Ala mutants [1] | increase on the EC50 value for the Asp117Ala and Asp121Ala mutants [2]
 | NDP-α-MSH | more than 350 fold | around 10 fold | around 10 fold
at least 25 fold | CCCC[C@H](NC(=O)[C@@H](Cc1ccc(C(F)(F)F)cc1)NC(=O)[C@H](Cc1cnc[nH]1)NC(C)=O)C(=O)N[C@@H](Cc1c[nH]c2ccccc12)C(N)=O [Peptide 5, Ac-His-DPhe(4-CF3)-Nle-Trp-NH2] (Ac-H[dPhe(4-CF3)][Nle]W-NH2) |  |  | 
